From ChEMBL document CHEMBL1201862, “PubChem BioAssay data set” (2004)
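Results reflect a 48-hour exposure of cells in 96-well plates to compound at five concentrations. GI50: concentration for 50% inhibition of growth.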 Active and inactive are the calls of the source. Cut-off read from the data, not from the text of the source: active = GI50 up to about 1.1 µM and inactive = higher.

Experiments:
Assay in all cases: growth of human tumour cells (NCI), 48 h
HCC 2998 = system: HCC 2998
U-251 = system: U-251
Hs-578T = system: Hs-578T
OVCAR-5 = system: OVCAR-5
A549 = system: A549
HOP-92 = system: HOP-92
NCI-H226 = system: NCI-H226
MDA-MB-435 = system: MDA-MB-435
CCRF-CEM = system: CCRF-CEM
IGROV-1 = system: IGROV-1
HCT-15 = system: HCT-15
OVCAR-3 = system: OVCAR-3
KM12 = system: KM12
CAKI-1 = system: CAKI-1
SNB-19 = system: SNB-19
SW-620 = system: SW-620
OVCAR-8 = system: OVCAR-8
HT-29 = system: HT-29
MDA-MB-231 = system: MDA-MB-231
SK-MEL-5 = system: SK-MEL-5
NCI-H522 = system: NCI-H522
UO-31 = system: UO-31
SF-539 = system: SF-539
COLO 205 = system: COLO 205
SN12C = system: SN12C
BT-549 = system: BT-549
OVCAR-4 = system: OVCAR-4
NCI-H23 = system: NCI-H23
NCI-H460 = system: NCI-H460
HCT-116 = system: HCT-116
K562 = system: K562
ACHN = system: ACHN
DU-145 = system: DU-145
UACC-257 = system: UACC-257
MOLT-4 = system: MOLT-4
RXF 393 = system: RXF 393
T47D = system: T47D
M14 = system: M14
HOP-62 = system: HOP-62
786-0 = system: 786-0
MCF7 = system: MCF7
SR = system: SR
SF-295 = system: SF-295
SK-MEL-28 = system: SK-MEL-28
TK-10 = system: TK-10
MDA-N = system: MDA-N
SK-OV-3 = system: SK-OV-3
Malme-3M = system: Malme-3M
A498 = system: A498
SF-268 = system: SF-268
SK-MEL-2 = system: SK-MEL-2
EKVX = system: EKVX
HL-60 = system: HL-60
RPMI-8226 = system: RPMI-8226
PC-3 = system: PC-3
LOX IMVI = system: LOX IMVI
NCI/ADR-RES = system: NCI/ADR-RES
SNB-75 = system: SNB-75
UACC-62 = system: UACC-62

For `CC(C)=CCN1c2ccc(Cl)cc2NC(=O)CC1C` (stereo unspecified), the GI50 (HCC 2998) was 44.4 µM (inactive), the GI50 (U-251) was 27.5 µM (inactive) and the GI50 (Hs-578T) was 24.3 µM (inactive). The GI50 (OVCAR-5) was 59.4 µM (inactive), the GI50 (A549) was 27.2 µM (inactive) and the GI50 (HOP-92) was 14.1 µM (inactive). The GI50 (NCI-H226) was 7.94 µM (inactive), the GI50 (MDA-MB-435) was 19.5 µM (inactive) and the GI50 (CCRF-CEM) was 38.6 µM (inactive). For the same molecule, the GI50 (IGROV-1) was 21.8 µM (inactive), the GI50 (HCT-15) was 31.4 µM and the GI50 (OVCAR-3) was 18.3 µM (inactive). The GI50 (KM12) was 28.3 µM (inactive), the GI50 (CAKI-1) was 15.8 µM (inactive) and the GI50 (SNB-19) was 36.9 µM (inactive). The GI50 (SW-620) was 34.4 µM (inactive), the GI50 (OVCAR-8) was 19.1 µM (inactive) and the GI50 (HT-29) was 17.5 µM (inactive). For the same molecule, the GI50 (MDA-MB-231) was 19.3 µM (inactive), the GI50 (SK-MEL-5) was 18 µM (inactive) and the GI50 (NCI-H522) was 12 µM (inactive). The GI50 (UO-31) was 31.6 µM (inactive), the GI50 (SF-539) was 20.5 µM (inactive) and the GI50 (COLO 205) was 21.6 µM (inactive). For the same molecule, the GI50 (SN12C) was 19.6 µM (inactive), the GI50 (BT-549) was 21.8 µM (inactive) and the GI50 (OVCAR-4) was 22 µM (inactive). The GI50 (NCI-H23) was 22.6 µM (inactive), the GI50 (NCI-H460) was 17.5 µM (inactive) and the GI50 (HCT-116) was 18.4 µM (inactive). The GI50 (K562) was 65.6 µM (inactive), the GI50 (ACHN) was 19.1 µM (inactive) and the GI50 (DU-145) was 42.1 µM (inactive). For the same molecule, the GI50 (UACC-257) was 21.2 µM (inactive), the GI50 (MOLT-4) was 48.4 µM (inactive) and the GI50 (RXF 393) was 24.9 µM (inactive). The GI50 (T47D) was 29.6 µM (inactive), the GI50 (M14) was 17.8 µM (inactive) and the GI50 (HOP-62) was 23.5 µM (inactive). The GI50 (786-0) was 18.2 µM (inactive), the GI50 (MCF7) was 21.4 µM (inactive) and the GI50 (SR) was 5.45 µM (inactive). The GI50 (SF-295) was 35.1 µM (inactive), the GI50 (SK-MEL-28) was 41.9 µM (inactive) and the GI50 (TK-10) was 35.2 µM (inactive). The GI50 (MDA-N) was 21.7 µM (inactive), the GI50 (SK-OV-3) was 34.7 µM (inactive) and the GI50 (Malme-3M) was 20.3 µM (inactive). For the same molecule, the GI50 (A498) was 21.8 µM (inactive), the GI50 (SF-268) was 34.7 µM (inactive) and the GI50 (SK-MEL-2) was 20.6 µM (inactive). The GI50 (EKVX) was 25.8 µM (inactive), the GI50 (HL-60) was 13 µM (inactive) and the GI50 (RPMI-8226) was 22.1 µM (inactive). The GI50 (PC-3) was 23.8 µM (inactive) and the GI50 (LOX IMVI) was 17.8 µM (inactive).
`O=c1cc(N2CCOCC2)[nH]c(=O)n1-c1cccc(Cl)c1` was tested, and the GI50 (HCC 2998) was > 100 µM (inactive), the GI50 (U-251) was > 100 µM (inactive) and the GI50 (Hs-578T) was > 100 µM (inactive). For the same molecule, the GI50 (OVCAR-5) was > 100 µM (inactive), the GI50 (HOP-92) was > 100 µM (inactive) and the GI50 (NCI-H226) was > 100 µM (inactive). The GI50 (MDA-MB-435) was > 100 µM (inactive), the GI50 (CCRF-CEM) was > 100 µM (inactive) and the GI50 (IGROV-1) was > 100 µM (inactive). For the same molecule, the GI50 (HCT-15) was greater than 100 µM, the GI50 (OVCAR-3) was > 100 µM (inactive) and the GI50 (KM12) was > 100 µM (inactive). For the same molecule, the GI50 (CAKI-1) was > 100 µM (inactive), the GI50 (SNB-19) was > 100 µM (inactive) and the GI50 (SW-620) was > 100 µM (inactive). The GI50 (OVCAR-8) was > 100 µM (inactive), the GI50 (HT-29) was > 100 µM (inactive) and the GI50 (MDA-MB-231) was > 100 µM (inactive). For the same molecule, the GI50 (NCI-H522) was > 100 µM (inactive), the GI50 (SF-539) was > 100 µM (inactive) and the GI50 (NCI/ADR-RES) was > 100 µM (inactive). For the same molecule, the GI50 (COLO 205) was > 100 µM (inactive), the GI50 (SN12C) was > 100 µM (inactive) and the GI50 (BT-549) was > 100 µM (inactive). For the same molecule, the GI50 (OVCAR-4) was > 100 µM (inactive), the GI50 (NCI-H23) was > 100 µM (inactive) and the GI50 (SNB-75) was > 100 µM (inactive). The GI50 (NCI-H460) was > 100 µM (inactive), the GI50 (HCT-116) was > 100 µM (inactive) and the GI50 (K562) was > 100 µM (inactive). The GI50 (ACHN) was > 100 µM (inactive), the GI50 (DU-145) was > 100 µM (inactive) and the GI50 (UACC-257) was > 100 µM (inactive). The GI50 (MOLT-4) was > 100 µM (inactive), the GI50 (RXF 393) was > 100 µM (inactive) and the GI50 (T47D) was > 100 µM (inactive). The GI50 (M14) was > 100 µM (inactive), the GI50 (HOP-62) was > 100 µM (inactive) and the GI50 (786-0) was > 100 µM (inactive). The GI50 (MCF7) was > 100 µM (inactive), the GI50 (SF-295) was > 100 µM (inactive) and the GI50 (SK-MEL-28) was > 100 µM (inactive). For the same molecule, the GI50 (TK-10) was > 100 µM (inactive), the GI50 (MDA-N) was > 100 µM (inactive) and the GI50 (SK-OV-3) was > 100 µM (inactive). For the same molecule, the GI50 (Malme-3M) was > 100 µM (inactive), the GI50 (A498) was 32.4 µM (inactive) and the GI50 (SF-268) was > 100 µM (inactive). For the same molecule, the GI50 (SK-MEL-2) was > 100 µM (inactive), the GI50 (EKVX) was > 100 µM (inactive) and the GI50 (HL-60) was > 100 µM (inactive). For the same molecule, the GI50 (RPMI-8226) was > 100 µM (inactive), the GI50 (PC-3) was > 100 µM (inactive) and the GI50 (UACC-62) was > 100 µM (inactive). For the same molecule, the GI50 (LOX IMVI) was > 100 µM (inactive).
